Where two headings read alike, the source gives them in different places.
Tests used:
BX-PC3 [1] = assay: Drug combinations with L-alanosine, MTT assay; type: cell-based; details: combination with L-alanosine, three days
Protocol: (§1) In each experiment, tumor cells from lung, pancreatic, or mesothelial tumor cell lines were plated in 96-well plates at 5,000 cells/well in 100 μL media. The media for all assays except the Alimta® studies was RPMI-1640 and 10% horse serum. For the Alimta® studies, the media used was RPMI 1640 with dialyzed fetal bovine serum. All media contained 100 Units/mL penicillin and 100 μg/mL streptomycin. The cells were allowed to adhere for 18 hours at 37° C./5.0% CO2. […] After drug addition, cells were incubated three days at 37° C., 5.0% CO2. Cell viability was assayed using a standard MTT assay, as follows: 10 μl of 12 mM 3-[4,5-dimethylthiazol-2-yl]-2,5-diphenyltetrazolium bromide (MTT) (Sigma) were added to each well. The cells were incubated at 37° C., 5% CO2 for 4 to 6 hours. 100 μl of 20% SDS, 0.015 M HCl were added to each well and the cells were incubated overnight. Cytotoxicity was measured by reading absorbance at 595 nm.
(§2) Data analysis was performed using GraphPad Prism version 3.0 (GraphPad Software, San Diego, Calif. USA).

A549 NSCLC xenografts = assay: MTAP-negative A549 NSCLC xenografts in SCID mice; type: in vivo
NCI-H2452 [2] = assay: Drug combinations with L-alanosine, MTT assay; type: cell-based; details: combination with L-alanosine, mesothelioma, three days
Protocol: as §1, §2

PanC1 = assay: Drug combinations with L-alanosine, MTT assay; type: cell-based; details: combination with L-alanosine, pancreatic, three days
Protocol: as §1, §2

A549 [3] = assay: Docetaxel, 5-FU, SDX-102 alone or combined, MTT/MTS cytotoxicity (Example 4); type: cell-based; details: Homo sapiens; A549, NSCLC, single agent, MTT 72 hours
NCI-H292 [4] = assay: as above; type: cell-based; details: Homo sapiens; NCI-H292, NSCLC, single agent, MTT 72 hours
NCI-H322M = assay: as above; type: cell-based; details: Homo sapiens, NSCLC, single agent, MTT 72 hours
PANC-1 = assay: as above; type: cell-based; details: Homo sapiens; PANC-1, Pancreatic, single agent, MTT 72 hours
BX-PC3 [5] = assay: as above; type: cell-based; details: Homo sapiens, BXPC-3; BX-PC3, Pancreatic, single agent, MTT 72 hours
NCI-H2452 [6] = assay: as above; type: cell-based; details: Homo sapiens; NCI-H2452, Mesothelioma, single agent, MTT 72 hours
A549 [7] = assay: Drug combinations with L-alanosine, MTT assay; type: cell-based; details: combination with L-alanosine, NSCLC, three days
Protocol: as §1, §2

NCI-H2322M = assay: Drug combinations with L-alanosine, MTT assay; type: cell-based; details: combination with L-alanosine, ratio drug:alanosine 1:1000; NSCLC; three days
Protocol: as §1, §2

NCI-H292 [8] = assay: Drug combinations with L-alanosine, MTT assay; type: cell-based; details: combination with L-alanosine, ratio drug:alanosine 1:1000; NSCLC; three days
Protocol: as §1, §2

H-Meso-1 = assay: Mesothelioma xenograft model (H-Meso-1) in SCID mice; type: in vivo; details: thirty-one days following treatment; docetaxel 10 mg/kg intraperitoneally daily Mon-Fri, SDX-102 50 mg/kg osmotic pump; start 100 mm^3; control 1272
A-427 [9] = assay: Intracellular ATP levels (Cell-Titer Glow); type: cell-based
Protocol: (§3) MTAP status was determined using immunoblot analyses and correlated with the ability of an MTA analog to rescue ATP levels in cell lines treated with SDX-102. ATP levels were measured using Cell-Titer Glow™ (Promega) after a 3 day treatment with titrated concentrations of either SDX-102 or pemetrexed.
(§4) ATP values measured using Cell-Titer Glow™ (Promega) after 3 days exposure to the MTA analog. Solid lines in FIG. 8 represent the effect of titrations of SDX-102 from 0.05 μM-20 μM (FIG. 8A) or pemetrexed from 0.01 μM-5 μM (FIG. 8B) on cellular ATP levels. The dotted lines represent the effect of a single concentration of SDX-102 (10 μM) or pemetrexed (2.5 μM) with a titration of an MTA analog from 0.1 μM-50 μM.

HS-766T [10] = assay: Intracellular ATP levels (Cell-Titer Glow); type: cell-based
Protocol: as §3, §4

NCI-H226 [11] = assay: Intracellular ATP levels (Cell-Titer Glow); type: cell-based
Protocol: as §3, §4

A-594 = assay: Intracellular ATP levels (Cell-Titer Glow); type: cell-based; details: 72 h; A-594, NSCLC, MTAP Negative; 3 day treatment
Protocol: as §3

BxPC3 [12] = assay: Intracellular ATP levels (Cell-Titer Glow); type: cell-based; details: Homo sapiens, BXPC-3, 72 h; BxPC3, Pancreatic, MTAP Negative; 3 day treatment
Protocol: as §3

NCI-H2452 [13] = assay: Intracellular ATP levels (Cell-Titer Glow); type: cell-based; details: Homo sapiens
Protocol: as §3

BxPC3 [14] = assay: Cell viability MTT assay (Example 3); type: cell-based; details: Homo sapiens, BXPC-3, 72 h; BxPC3, Pancreatic, MTAP Negative; 3 days
HS-766T [15] = assay: Cell viability MTT assay (Example 3); type: cell-based
[16] = Cell viability MTT assay (Example 3); type: cell-based; details: 72 h; A-594, NSCLC, MTAP Negative; 3 days
A-427 [17] = assay: Cell viability MTT assay (Example 3); type: cell-based; details: Homo sapiens, 72 h; A-427, NSCLC, MTAP Positive; 3 days
NCI-H2452 [18] = assay: Cell viability MTT assay (Example 3); type: cell-based; details: Homo sapiens, 72 h; NCI-H2452, Mesothelioma, MTAP Negative; 3 days
NCI-H226 [19] = assay: Cell viability MTT assay (Example 3); type: cell-based; details: Homo sapiens, 72 h; NCI-H226, Mesothelioma, MTAP Positive; 3 days
NCI-H2452 [20] = test system: NCI-H2452
[21] = ratio drug:alanosine 1:4, pancreas
[22] = ratio drug:alanosine 1:100, pancreas
[23] = ratio drug:alanosine 5:1, pancreatic

COc1cc2ncnc(Nc3ccc(F)c(Cl)c3)c2cc1OCCCN1CCOCC1 [Iressa ®, gefitinib]
EC75 CI value (BX-PC3 [1]; [21]): 0.29
EC75 Effect (BX-PC3 [1]; [21]): strong
EC90 Effect (BX-PC3 [1]; [21]): strong

CCC1=C[C@@H]2CN(C1)Cc1c([nH]c3ccccc13)[C@@](C(=O)OC)(c1cc3c(cc1OC)N(C)[C@H]1[C@@](O)(C(=O)OC)[C@H](OC(C)=O)[C@]4(CC)C=CCN5CC[C@]31[C@@H]54)C2 [vinorelbine]
EC75 CI value (BX-PC3 [1]; [22]): 0.6
EC75 Effect (BX-PC3 [1]; [22]): synergism
EC90 Effect (BX-PC3 [1]; [22]): synergism

CC(=O)O[C@H]1C(=O)[C@@]2(C)[C@H]([C@H](OC(=O)c3ccccc3)[C@]3(O)C[C@H](OC(=O)[C@H](O)[C@@H](NC(=O)c4ccccc4)c4ccccc4)C(C)=C1C3(C)C)[C@]1(OC(C)=O)CO[C@@H]1C[C@@H]2O [paclitaxel]
tumor growth inhibition (A549 NSCLC xenografts; 60 days monitoring, doses as administered): inhibited tumor growth
time for the tumors to increase 10-fold in size (A549 NSCLC xenografts; L-alanosine 40 then 20 mg/kg/day, Taxol 16 mg/kg/day i.p., two cycles (day 0, day 41), control 32.2): 43.2 days
percent mean change in tumor volume (A549 NSCLC xenografts; day 46): 1449±236%

O=c1[nH]cc(F)c(=O)[nH]1 [5-FU, 5-fluorouracil]
EC75 CI value (BX-PC3 [1]; [23]): 0.8
EC75 Effect (BX-PC3 [1]; [23]): moderate
EC90 Effect (BX-PC3 [1]; [23]): moderate
EC75 CI value (NCI-H2452 [2]; ratio drug:alanosine 1:1): 0.5
EC75 Effect (NCI-H2452 [2]; ratio drug:alanosine 1:1): synergism
EC90 Effect (NCI-H2452 [2]; ratio drug:alanosine 1:1): synergism
EC75 CI value (PanC1; ratio drug:alanosine 1:1): 0.6
EC75 Effect (PanC1; ratio drug:alanosine 1:1): synergism
EC90 Effect (PanC1; ratio drug:alanosine 1:1): synergism
IC50 (A549 [3]): 1000 ± 600 nM
IC50 (NCI-H292 [4]): 3000 ± 2000 nM
IC50 (NCI-H322M): 6000 ± 5000 nM
IC50 (PANC-1): 14000 ± 4000 nM
IC50 (BX-PC3 [5]): 3000 ± 2000 nM
IC50 (NCI-H2452 [6]): 5000 ± 2000 nM

CC(=O)O[C@@]12CO[C@@H]1C[C@H](O)[C@@]1(C)C(=O)[C@H](O)C3=C(C)[C@@H](OC(=O)[C@H](O)[C@@H](NC(=O)OC(C)(C)C)c4ccccc4)C[C@@](O)([C@@H](OC(=O)c4ccccc4)[C@H]21)C3(C)C [docetaxel]
EC75 CI value (A549 [7]; ratio drug:alanosine 1:100): 0.8
EC75 Effect (A549 [7]; ratio drug:alanosine 1:100): moderate
EC90 Effect (A549 [7]; ratio drug:alanosine 1:100): moderate
EC75 CI value (NCI-H2322M): 0.9
EC90 Effect (NCI-H2322M): synergism
EC75 CI value (NCI-H2452 [2]; ratio drug:alanosine 1:1000): 0.8
EC75 Effect (NCI-H2452 [2]; ratio drug:alanosine 1:1000): moderate
EC90 Effect (NCI-H2452 [2]; ratio drug:alanosine 1:1000): synergism
EC75 CI value (NCI-H292 [8]): 1.1
EC75 Effect (NCI-H292 [8]): additive
EC90 Effect (NCI-H292 [8]): additive
EC75 CI value (PanC1; ratio drug:alanosine 1:1000): 0.6
EC75 Effect (PanC1; ratio drug:alanosine 1:1000): synergism
EC90 Effect (PanC1; ratio drug:alanosine 1:1000): synergism
IC50 (A549 [3]): 5000 ± 4000 nM
IC50 (NCI-H292 [4]): 200 ± 50 nM
IC50 (NCI-H322M): 6000 ± 2000 nM
IC50 (PANC-1): 30000 ± 6000 nM
IC50 (BX-PC3 [5]): 1200 ± 800 nM
IC50 (NCI-H2452 [6]): 3000 ± 2000 nM
mean tumor volume (H-Meso-1): 655 mm^3

Nc1ccn([C@@H]2O[C@H](CO)[C@@H](O)C2(F)F)c(=O)n1 [gemcitabine]
EC75 CI value (NCI-H2452 [2]; ratio drug:alanosine 1:100): 0.6
EC75 Effect (NCI-H2452 [2]; ratio drug:alanosine 1:100): synergism
EC90 Effect (NCI-H2452 [2]; ratio drug:alanosine 1:100): synergism

Nc1nc2[nH]cc(CCc3ccc(C(=O)N[C@@H](CCC(=O)O)C(=O)O)cc3)c2c(=O)[nH]1 [pemetrexed]
EC75 CI value (A549 [7]; ratio drug:alanosine 1:10): 0.9
EC75 Effect (A549 [7]; ratio drug:alanosine 1:10): slight
EC90 Effect (A549 [7]; ratio drug:alanosine 1:10): Slight
EC75 CI value (NCI-H2452 [2]; ratio drug:alanosine 1:1): 0.3
EC75 Effect (NCI-H2452 [2]; ratio drug:alanosine 1:1): strong
EC90 Effect (NCI-H2452 [2]; ratio drug:alanosine 1:1): strong
ATP levels restored by addition of an MTAP substrate, of level in control cells (A-427 [9]; A-427 (MTAP-positive) treated with pemetrexed): more than 85%
IC50 (A-427 [9]; Homo sapiens, 72 h, A-427, NSCLC, MTAP Positive, 3 day treatment): 5000 nM
ATP levels restored by addition of an MTAP substrate, of level in control cells (HS-766T [10]; HS-766T (MTAP-positive) treated with pemetrexed): more than 85%
IC50 (HS-766T [10]; Hs766T, 72 h, HS-766T, Pancreatic, MTAP Positive, 3 day treatment): 800 nM
IC50 (NCI-H226 [11]; Homo sapiens, 72 h, NCI-H226, Mesothelioma, MTAP Positive, 3 day treatment): 1000 nM
ATP levels restored by addition of an MTAP substrate, of level in control cells (NCI-H226 [11]; NCI-H226 (MTAP-positive) treated with pemetrexed): more than 85%
IC50 (A-594): > 20000 nM
IC50 (BxPC3 [12]): 5000 nM
IC50 (NCI-H2452 [13]; 72 h, NCI-H2452, Mesothelioma, MTAP Negative, 3 day treatment, read-out: ATP IC50): 100 nM
IC50 (NCI-H2452 [13]; NCI-H2452, 72 hours incubation, read-out: concentration causing 50% reduction of intracellular ATP): 80 nM
IC50 (BxPC3 [14]): 50 nM
IC50 (HS-766T [15]; Hs766T, 72 h, Pancreatic, MTAP Positive, 3 days): > 20000 nM
rescue by MTAP substrate from loss of viability (HS-766T [15]; MTT assay): fully rescue
IC50 [16]: 500 nM
IC50 (A-427 [17]): 3000 nM
IC50 (NCI-H2452 [18]): 50 nM
IC50 (NCI-H226 [19]): 1000 nM
IC75 (NCI-H2452 [20]; NCI-H2452, incubation with 200 nM L-alanosine): 15 nM
IC75 (NCI-H2452 [20]; NCI-H2452, pemetrexed alone): 200 nM
